The test relates to Plasmodium falciparum 3D7. As to the kind of experiment: P. falciparum 3D7 asexual blood stage assay, Assay Procedure Version 1 (SYBR green readout). Format: cell-based. The settings on record: 3D7, Erythrocyte, Version 1 of the assay procedure (no asterisk), 72 h incubation in infected erythrocytes, 10,000 nM to 0.51 nM. The protocol:
Asexual Blood Stage Assay
The assay used to measure the effect of test compounds on a bloodstream stage of Plasmodium falciparum 3D7 strain employs SYBR green as the readout. This is a dye that binds to double stranded deoxyribonucleic acid (DNA) with a resulting increase in fluorescence, allowing detection of P. falciparum DNA in infected erythrocytes, and thereby providing a measure of parasite growth and propagation.
P. falciparum Culture Maintenance
Erythrocytes (A+blood) were prepared for both parasite culture and assay by washing 4 times with incomplete media (15.9 g RPMI 1640 (25 mM HEPES, L-glutamine), 1 g NaHCO3, 2 g glucose, 400 μL gentacin (500 mg/mL), 2 mL hypoxanthine solution (13.6 g/L in 0.1M NaOH pH 7.3) in 1 litre of media). The cells were centrifuged at 1800 g for 5 minutes, before decanting the supernatant and re-suspending in fresh incomplete media. On the final wash, the cells were re-suspended in complete media (incomplete media with 5 g/L AlbumaxII), and centrifuged at 1800 g for 3 minutes. This cell sediment was treated as 100% haematocrit.
P. falciparum 3D7 was cultured in erythrocytes at 5% haematocrit in complete media at 37° C. (1% O2, 3% CO2, balance N2). Cultures were split on a weekly basis to achieve a 1% parasitaemia in erythrocites at 5% haematocrit in fresh media. Culture media is replaced by fresh media every other day (2 times during the week).
Assay Procedure—Version 1
On day 1, test compounds were added to assay plates using Echo dispensing technology (3 fold dilution and 10 points titration). 50 nL of each compound dilution was added to 50 μL of culture (5% haematocrit, 0.5% parasitaemia) and incubated for 72 h at 37° C. (1% O2, 3% CO2, balance N2). Final concentrations of test compounds ranged from 10,000 nM to 0.51 nM, in […].
On day 4, 10 μL SYBR green (Invitrogen S7563 supplied as 10,000×concentrate in DMSO) pre-diluted to 3× concentrate with Lysis buffer (20 mM Tris pH 7.9, 5% EDTA, 0.16% w/v, 1.6% TX100 v/v) was added to the cultures and incubated in the dark, overnight, at room temperature.
On day 5, fluorescent signal was measured using a BioTek plate reader (excitation 485 nm, emission 528 nm). All data were processed using IDBS ActivityBase. Raw data were converted into percent inhibition through linear regression by setting the high inhibition control as 100% and the no inhibition control as 0%. Quality control criteria for passing plates were as follows: Z′>0.5, S:B>3, % CV(no inhibition control)<15. The formula used to calculate Z′ is
All EC50 curve fitting was undertaken using the following 4 parametric equation:
[formula] where A=% inhibition at bottom; B=% inhibition at top; C=EC50; D=slope; x=inhibitor concentration; and y=% inhibition. […] Assay Procedure—Version 2
What is called IC50 is the concentration that inhibits the measured activity by half. Read a low IC50 as higher potency. `C[C@@H]1C[C@H](N2C(=N)N[C@](C)(c3cccc(Nc4cnc(C5CC5)nc4)c3Cl)CC2=O)CCO1` (relative stereo) [Example 204, (6S)-6-{2-Chloro-3-[(2-cyclo-propylpyrimidin-5-yl)amino]-phenyl}-2-imino-6-methyl-3-[(2R*,4R*)-2-methyltetrahydro-pyran-4-yl]hexahydropyrimidin-4-one] yielded an IC50 of 0.031 µM.
Next, `C[C@@]1(c2cccc(Nc3ccc(F)cc3)c2Cl)CC(=O)N(CC2CCOCC2)C(=N)N1` (single isomer, unassigned) [Example 170, (6S*)-6-[2-Chloro-3-(4-fluoro-anilino)phenyl]-2-imino-6-methyl-3-(tetrahydropyran-4-ylmethyl)hexahydropyrimidin-4-one]: 0.492 µM; `C[C@@]1(c2cccc(Nc3ccc(F)cc3)c2Cl)CC(=O)N(C2CCCOC2)C(=N)N1` (single isomer, unassigned) [Example 189, (6S)-6-[2-Chloro-3-(4-fluoro-anilino)phenyl]-2-imino-6-methyl-3-[(3S*)-tetrahydro-pyran-3-yl]hexahydropyrimidin-4-one]: 0.82 µM.
Next, `C[C@@]1(c2cccc(Nc3ccccc3)c2Cl)CC(=O)N(CC2(O)CC2)C(=N)N1` [Example 1, (6S)-6-(3-Anilino-2-chloro-phenyl)-3-[(1-hydroxy-cyclopropyl)methyl]-2-imino-6-methylhexahydropyrimidin-4-one]: 0.4 µM; `C[C@@]1(c2cccc(Nc3ccccc3)c2Cl)CC(=O)N(C2CCOCC2)C(=N)N1` [Example 2, (6S)-6-(3-Anilino-2-chloro-phenyl)-2-imino-6-methyl-3-(tetrahydropyran-4-yl)-hexahydropyrimidin-4-one]: 0.15 µM; `C[C@@]1(c2cccc(Nc3ccccc3)c2Cl)CC(=O)N(CC2CCOCC2)C(=N)N1` [Example 3, (6S)-6-(3-Anilino-2-chloro-phenyl)-2-imino-6-methyl-3-(tetrahydropyran-4-ylmethyl)-hexahydropyrimidin-4-one]: 0.08 µM.
As for `C[C@@]1(c2cccc(Nc3ccccc3)c2Cl)CC(=O)N(C2CCCCC2)C(=N)N1` [Example 4, (6S)-6-(3-Anilino-2-chloro-phenyl)-3-cyclohexyl-2-imino-6-methylhexahydropyrimidin-4-one], 0.075 µM corresponded to half-maximal inhibition (IC50).
For the compound `C[C@@]1(c2cccc(Nc3cccc(Cl)c3)c2Cl)CC(=O)N(C2CCOCC2)C(=N)N1` [Example 7, (6S)-6-[2-Chloro-3-(3-chloro-anilino)phenyl]-2-imino-6-methyl-3-(tetrahydropyran-4-yl)hexahydropyrimidin-4-one], it took 0.334 µM to reach half-maximal inhibition (IC50).
Next, `Cc1cccc(Nc2cccc([C@]3(C)CC(=O)N(C4CCOCC4)C(=N)N3)c2Cl)c1` [Example 8, (6S)-6-[2-Chloro-3-(3-methyl-anilino)phenyl]-2-imino-6-methyl-3-(tetrahydropyran-4-yl)hexahydropyrimidin-4-one]: 0.33 µM; `C[C@@]1(c2cccc(Nc3cccc(C#N)c3)c2Cl)CC(=O)N(C2CCOCC2)C(=N)N1` [Example 9, 3-{2-Chloro-3-[(4S)-2-imino-4-methyl-6-oxo-1-(tetrahydro-pyran-4-yl)hexahydropyrimidin-4-yl]anilino}benzonitrile]: 0.333 µM; `Cc1cc(Nc2cccc([C@]3(C)CC(=O)N(C4CCOCC4)C(=N)N3)c2Cl)ccc1F` [Example 10, (6S)-6-[2-Chloro-3-(4-fluoro-3-methylanilino)phenyl]-2-imino-6-methyl-3-(tetrahydropyran-4-yl)hexahydropyrimidin-4-one]: 0.69 µM.
As for `C[C@@]1(c2cccc(Nc3ccc(C(F)(F)F)cc3)c2Cl)CC(=O)N(C2CCOCC2)C(=N)N1` [Example 11, (6S)-6-{2-Chloro-3-[4-(tri-fluoromethyl)anilino]phenyl}-2-imino-6-methyl-3-(tetrahydro-pyran-4-yl)hexahydropyrimidin-4-one], the figure is 0.82 µM; as for `C[C@@]1(c2cccc(Nc3ccc(F)cc3)c2Cl)CC(=O)N(C2CCOCC2)C(=N)N1` [Example 12, (6S)-6-[2-Chloro-3-(4-fluoro-anilino)phenyl]-2-imino-6-methyl-3-(tetrahydropyran-4-yl)hexahydropyrimidin-4-one], 0.2 µM; as for `C[C@@]1(c2cccc(Nc3ccccc3)c2Cl)CC(=O)N([C@H]2C[C@@](C)(O)C2)C(=N)N1` [Example 13, (6S)-6-(3-Anilino-2-chloro-phenyl)-3-(3-hydroxy-3-methyl-cyclobutyl)-2-imino-6-methyl-hexahydropyrimidin-4-one], 0.23 µM.
As for `Cc1ccc(Nc2cccc([C@]3(C)CC(=O)N(C4CCOCC4)C(=N)N3)c2Cl)cn1` [Example 14, (6S)-6-{2-Chloro-3-[(6-methyl-pyridin-3-yl)amino]phenyl}-2-imino-6-methyl-3-(tetrahydro-pyran-4-yl)hexahydropyrimidin-4-one], the figure is 0.28 µM; as for `C[C@@]1(c2cccc(Nc3ccccc3Cl)c2Cl)CC(=O)N(C2CCOCC2)C(=N)N1` [Example 15, (6S)-6-[2-Chloro-3-(2-chloro-anilino)phenyl]-2-imino-6-methyl-3-(tetrahydropyran-4-yl)hexahydropyrimidin-4-one], 1.53 µM; as for `C[C@@]1(c2cccc(Nc3ccccc3C(F)(F)F)c2Cl)CC(=O)N(C2CCOCC2)C(=N)N1` [Example 16, (6S)-6-{2-Chloro-3-[2-(trifluoromethyl)anilino]-phenyl}-2-imino-6-methyl-3-(tetrahydropyran-4-yl)-hexahydropyrimidin-4-one], 2.29 µM.
The compound `C[C@@]1(c2cccc(Nc3ccccc3C#N)c2Cl)CC(=O)N(C2CCOCC2)C(=N)N1` [Example 17, 2-{2-Chloro-3-[(4S)-2-imino-4-methyl-6-oxo-1-(tetrahydro-pyran-4-yl)hexahydropyrimidin-4-yl]anilino}benzonitrile] registered an IC50 of 0.27 µM. Compared with the last compound, the IC50 is about 8.5-fold lower.
Next, `C[C@@]1(c2cccc(Nc3ccc(C#N)cc3)c2Cl)CC(=O)N(C2CCOCC2)C(=N)N1` [Example 18, 4-{2-Chloro-3-[(4S)-2-imino-4-methyl-6-oxo-1-(tetrahydro-pyran-4-yl)hexahydropyrimidin-4-yl]anilino}benzonitrile]: 0.534 µM; `Cc1ncc(Nc2cccc([C@]3(C)CC(=O)N(C4CCOCC4)C(=N)N3)c2Cl)cn1` [Example 19, (6S)-6-{2-Chloro-3-[(2-methyl-pyrimidin-5-yl)amino]phenyl}-2-imino-6-methyl-3-(tetrahydro-pyran-4-yl)hexahydropyrimidin-4-one]: 0.996 µM.
As for `C[C@@]1(c2cccc(Nc3cccnc3)c2Cl)CC(=O)N(C2CCOCC2)C(=N)N1` [Example 20, (6S)-6-[2-Chloro-3-(pyridin-3-ylamino)phenyl]-2-imino-6-methyl-3-(tetrahydropyran-4-yl)hexahydropyrimidin-4-one], the figure is 2.31 µM.
As to `C[C@@]1(c2cccc(Nc3cccc4ncccc34)c2Cl)CC(=O)N(C2CCOCC2)C(=N)N1` [Example 21, (6S)-6-[2-Chloro-3-(quinolin-5-ylamino)phenyl]-2-imino-6-methyl-3-(tetrahydropyran-4-yl)hexahydropyrimidin-4-one], 1.18 µM corresponded to half-maximal inhibition (IC50).

These data come from patent US11479546B2, “Antimalarial hexahydropyrimidine analogues” (UCB Biopharma SRL, priority 2018, dated 2022).
